Data taken from PubChem BioAssay AID1963871 (Molecular Pharmacology Branch, DTP, NCI, 2024).

System: KRAS-mutant PDC multicell tumor spheroid viability
Test: Anticancer human tumor 521955-158-R2-J5-PDC patient-derived pancreatic carcinoma cell line growth inhibition [KRAS2]
Conditions: for IC50: curve of first compound; for viability, T/C: stronger effect = lower value
Summary of the method: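 KRAS-mutant tumor cells were grown as spheroids with HUVEC endothelial cells and human MSCs as stroma. Targeted agents were tested alone and with KRAS pathway inhibitors. Doses started at or near clinical Cmax, or 10 microM, descending half-log.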

[1] = second compound 0.1 µM, first compound 0.01 µM
[2] = second compound 0.1 µM, first compound 0.0316 µM
[3] = second compound 0.1 µM, first compound 0.1 µM
[4] = second compound 0.1 µM, first compound 0.316 µM
[5] = second compound 0.1 µM, first compound 1 µM
[6] = second compound 0.1 µM, first compound 3.16 µM
[7] = second compound 0.316 µM, first compound 0.01 µM
[8] = second compound 0.316 µM, first compound 0.0316 µM
[9] = second compound 0.316 µM, first compound 0.1 µM
[10] = second compound 0.316 µM, first compound 0.316 µM
[11] = second compound 0.316 µM, first compound 1 µM
[12] = second compound 0.316 µM, first compound 3.16 µM
[13] = second compound 1 µM, first compound 0.01 µM
[14] = second compound 1 µM, first compound 0.0316 µM
[15] = second compound 1 µM, first compound 0.1 µM
[16] = second compound 1 µM, first compound 0.316 µM
[17] = second compound 1 µM, first compound 1 µM
[18] = second compound 1 µM, first compound 3.16 µM
[19] = second compound 3.16 µM, first compound 0.01 µM
[20] = second compound 3.16 µM, first compound 0.0316 µM
[21] = second compound 3.16 µM, first compound 0.1 µM
[22] = second compound 3.16 µM, first compound 0.316 µM
[23] = second compound 3.16 µM, first compound 1 µM
[24] = second compound 3.16 µM, first compound 3.16 µM
[25] = second compound 10 µM, first compound 0.01 µM
[26] = second compound 10 µM, first compound 0.0316 µM
[27] = second compound 10 µM, first compound 0.1 µM
[28] = second compound 10 µM, first compound 0.316 µM
[29] = second compound 10 µM, first compound 1 µM
[30] = second compound 10 µM, first compound 3.16 µM
[31] = second compound 0.1 µM, first compound 10 µM
[32] = second compound 0.316 µM, first compound 10 µM
[33] = second compound 1 µM, first compound 10 µM
[34] = second compound 3.16 µM, first compound 10 µM
[35] = second compound 10 µM, first compound 10 µM
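Also: viability read after seven days of drug exposure.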

| Structure (SMILES) | IC50 (second compound 0.1 µM) [nM] | IC50 (second compound 0.316 µM) [nM] | IC50 (second compound 1 µM) [nM] | IC50 (second compound 3.16 µM) [nM] | IC50 (second compound 10 µM) [nM] | viability, T/C [2] [%] | viability, T/C [3] [%] | viability, T/C [4] [%] | viability, T/C [5] [%] | viability, T/C [6] [%] | viability, T/C [8] [%] | viability, T/C [9] [%] | viability, T/C [10] [%] | viability, T/C [11] [%] | viability, T/C [14] [%] | viability, T/C [15] [%] | viability, T/C [20] [%] | viability, T/C [21] [%] | viability, T/C [26] [%] | viability, T/C [27] [%] | further results |
| --- | --- | --- | --- | --- | --- | --- | --- | --- | --- | --- | --- | --- | --- | --- | --- | --- | --- | --- | --- | --- | --- |
| CC(=O)OC12COC1CC(O)C1(C)C(=O)C(O)C3=C(C)C(OC(=O)C(O)C(NC(=O)OC(C)(C)C)c4ccccc4)CC(O)(C(OC(=O)c4ccccc4)C21)C3(C)C (stereo not given) + CC1OCC2(CCN(c3cnc(Sc4ccnc(N)c4Cl)c(N)n3)CC2)C1N | < 10 | < 10 | < 10 | < 10 | < 10 | 15.3 | 11.9 | 14.5 | 16.1 | 19.7 | 15.3 | 14 | 11.1 | 17.7 | 13 | 11.2 | 15.9 | 14.5 | 15.9 | 15.2 | viability, T/C [1]: 26.4%; viability, T/C [7]: 25.1%; viability, T/C [12]: 18.2%; viability, T/C [13]: 19.7%; viability, T/C [16]: 13.1%; viability, T/C [17]: 15.6%; viability, T/C [18]: 20.7%; viability, T/C [19]: 21.2%; viability, T/C [22]: 12.7%; viability, T/C [23]: 19.5%; viability, T/C [24]: 23.2%; viability, T/C [25]: 22.1%; viability, T/C [28]: 17.3%; viability, T/C [29]: 14.6%; viability, T/C [30]: 22.3% |
| CN(C)C/C=C/C(=O)Nc1cc2c(Nc3ccc(F)c(Cl)c3)ncnc2cc1O[C@H]1CCOC1 + CC1OCC2(CCN(c3cnc(Sc4ccnc(N)c4Cl)c(N)n3)CC2)C1N | > 100 | > 100 | > 100 | < 0.316 | > 100 | 81.9 | 59.3 |  |  |  | 63.5 | 58.2 |  |  | 78.6 | 73.1 | 65.2 | 64.5 | 80.8 | 80.3 | viability, T/C (second compound 0.1 µM, first compound 0.000316 µM): 71.7%; viability, T/C (second compound 0.1 µM, first compound 0.001 µM): 66.5%; viability, T/C (second compound 0.1 µM, first compound 0.00316 µM): 56.3%; viability, T/C [1]: 73.4%; viability, T/C (second compound 0.316 µM, first compound 0.000316 µM): 60.5%; viability, T/C (second compound 0.316 µM, first compound 0.001 µM): 70.3%; viability, T/C (second compound 0.316 µM, first compound 0.00316 µM): 57.3%; viability, T/C [7]: 57.6%; viability, T/C (second compound 1 µM, first compound 0.000316 µM): 112%; viability, T/C (second compound 1 µM, first compound 0.001 µM): 107%; viability, T/C (second compound 1 µM, first compound 0.00316 µM): 85.3%; viability, T/C [13]: 75.5%; viability, T/C (second compound 3.16 µM, first compound 0.000316 µM): 28%; viability, T/C (second compound 3.16 µM, first compound 0.001 µM): 37%; viability, T/C (second compound 3.16 µM, first compound 0.00316 µM): 37.2%; viability, T/C [19]: 49%; viability, T/C (second compound 10 µM, first compound 0.000316 µM): 105%; viability, T/C (second compound 10 µM, first compound 0.001 µM): 90%; viability, T/C (second compound 10 µM, first compound 0.00316 µM): 85.8%; viability, T/C [25]: 79.9% |
| COC(=O)c1ccc2c(C(=Nc3ccc(N(C)C(=O)CN4CCN(C)CC4)cc3)c3ccccc3)c(O)[nH]c2c1 + CC1OCC2(CCN(c3cnc(Sc4ccnc(N)c4Cl)c(N)n3)CC2)C1N | 2490 | 1800 | 1070 | 1080 | 1120 | 79.4 | 80.7 | 72.9 | 80.8 | 42.5 | 66.3 | 70.5 | 60 | 85.4 | 46.8 | 46.7 | 56 | 58.6 | 61.1 | 58.3 | viability, T/C [31]: 0.38%; viability, T/C [12]: 30.1%; viability, T/C [32]: 0.37%; viability, T/C [16]: 55.9%; viability, T/C [17]: 57%; viability, T/C [18]: 26.6%; viability, T/C [33]: 0.4%; viability, T/C [22]: 58%; viability, T/C [23]: 51.7%; viability, T/C [24]: 23.2%; viability, T/C [34]: 0.51%; viability, T/C [28]: 64.3%; viability, T/C [29]: 55.4%; viability, T/C [30]: 0.64%; viability, T/C [35]: 0.38% |
| O=C(c1cc(Cc2n[nH]c(=O)c3ccccc23)ccc1F)N1CCN(C(=O)C2CC2)CC1 + CC1OCC2(CCN(c3cnc(Sc4ccnc(N)c4Cl)c(N)n3)CC2)C1N | > 10000 | < 31.6 | > 10000 | < 31.6 | 725 | 67.2 | 71.2 | 57.2 | 55 | 53.3 | 48.7 | 48.6 | 46.8 | 49.1 | 106 | 118 | 30.4 | 35.5 | 43.2 | 44.3 | viability, T/C [31]: 58%; viability, T/C [12]: 49.8%; viability, T/C [32]: 40.2%; viability, T/C [16]: 92.3%; viability, T/C [17]: 83.9%; viability, T/C [18]: 74.1%; viability, T/C [33]: 56.8%; viability, T/C [22]: 37.9%; viability, T/C [23]: 35.9%; viability, T/C [24]: 38.6%; viability, T/C [34]: 33.6%; viability, T/C [28]: 86.8%; viability, T/C [29]: 46.9%; viability, T/C [30]: 44%; viability, T/C [35]: 39.3% |
